# According to US8507506B2, “Theophylline derivative inhibits osteoporosis” (Kaohsiung Medical University, priority 2011, dated 2013):
# Columns and labels:
# [1] = test system: MMP-9 protein in RAW264.7 cells; assay: Western blot, amount of MMP-9 protein induced by RANKL; assay type: cell-based; conditions: RANKL 24 hours, FIG. 19
# Experimental: KMUP-1 influences there major up-stream signal transduction pathways which are related to RANK/RANKL. Western blot is used to estimate the amount of matrix metalloproteinase (MMP)-2 and MMP-9 which are related to the dissolution of osteoclast-like cells, and the enzyme activity of MMP-2 and MMP-9 are estimated via Gelatin Zymography. […] The proteins were collected by scraping and were centrifuged (13,000 rpm, 4° C., 30 minutes). The supernatant was stored in an eppendorf in −80° C. • c) Concentrations of the proteins were examined by Bio-Red DC Protein Assay. After knowing the concentrations, the proteins were diluted to specific concentrations by adding ddH2O. One forth volume of the diluted proteins of sample buffer was added into the diluted proteins and was put in boiled water for 5 min and then was chilled on ice for 5 minutes. After short time centrifugation, the diluted proteins could be injected into wells of a gel. The gel was run at 100 V for 10 minutes until the proteins were driven to the intersection between a loading gel and a running gel. Then, the voltage was swopped to 200 V for 40 minutes. • d) A PVDF membrane was immersed in Methanol for 2 minutes. After two washes in ddH2O, the membrane was immersed in transfer buffer for 15 minutes. A SDS-PAGE was put on the membrane, and wet paper was flanked them. […]
# [2] = test system: IκBα in cytoplasm of RAW264.7 cells; assay: Western blot, IκBα phosphorylation and hydrolysis induced by RANKL; assay type: cell-based; conditions: KMUP-1 in advance 24 hours, RANKL 30 minutes, FIG. 8(A)
# Experimental: IκBα which originally binds with NF-κB to inhibit its activity in cytoplasm is stimulated by RANKL to be phosphorylized and be hydrolyzed after separating from NF-κB. Then, the free NF-κB transfers into a cell nucleus to play a role as a transcription factor. According to the experimental result, compared with the control group, in the group induced by RANKL for 30 minutes, the IκBα in the cytoplasm is obviously phosphorylized and hydrolyzed. […] According to the result, KMUP-1 can inhibit NF-κB activation induced by RANKL. Nuclear proteins were extracted according to the instructions of NE-PER kit. 2.5×10^6 cells were plated per well in 24-well plates. […] Subsequently, the cells were added by 5.5 μ[…] and shaken for 5 seconds and then put on ice for 1 minute. After that, the cells were shaken again for 5 seconds and centrifuged (10,000 rpm, 4° C., 5 minutes). Cytoplasm and Nuclei could be separated by this process, and the supernatant was cytoplasmic proteins, and the pallet was nuclei. The supernatant was stored in an eppendorf in -80° C. b) Extraction of Nuclear Proteins The nuclear pallet was added by 500 μl PBS and centrifuged (10,000 rpm, 4° C., 5 minutes), and the supernatant was discarded. The pallet could be washed by this process and prevented contamination. […]
compound,measurement,setting,value
"Cn1c(=O)c2c(ncn2CCN2CCN(c3ccccc3Cl)CC2)n(C)c1=O [KMUP-1, 7-[2-[4-(2-Chlorophenyl)piperazin-1-yl]ethyl] theophylline]",amount of MMP-9 protein induced by RANKL,[1],can efficiently inhibit the amount of MMP-2 and MMP-9 proteins
same,phosphorylation and hydrolysis of IκBα in cytoplasm induced by RANKL,[2],can inhibit the effect of RANKL
